Results from ChEMBL document CHEMBL5036365, “A Molecular Networking Based Discovery of Diketopiperazine Heterodimers and Aspergillicins from Aspergillus caelatus” (J Nat Prod, 2022).
Calls of active or inactive are those of the source.

How the values were obtained:
Pyricularia grisea [1] = assay: Antifungal activity against Magnaporthe grisea CF-105765 at 160 ug/ml incubated for 24 hrs by agar based assay; assay type: functional, organism-based; conditions: dose 160.0 µg/ml
HepG2 [2] = assay: Cytotoxicity against human HepG2 cells at 40 ug/ml treated for 72 hrs by MTT assay; assay type: functional, cell-based; conditions: dose 40.0 µg/ml
Fusarium graminearum [3] = assay: Antifungal activity against Fusarium graminearum BRFM 1982 at 160 ug/ml incubated for 24 hrs by agar based assay; assay type: functional, organism-based; conditions: dose 160.0 µg/ml
Botrytis cinerea [4] = assay: Antifungal activity against Botrytis cinerea B05.10 at 160 ug/ml incubated for 24 hrs by agar based assay; assay type: functional, organism-based; conditions: dose 160.0 µg/ml
Botrytis cinerea [5] = assay: Antifungal activity against Botrytis cinerea B05.10 at 50 ug/ml incubated for 24 hrs by agar based assay; assay type: functional, organism-based; conditions: dose 50.0 µg/ml
Fusarium graminearum [6] = assay: Antifungal activity against Fusarium graminearum BRFM 1982 at 50 ug/ml incubated for 24 hrs by agar based assay; assay type: functional, organism-based; conditions: dose 50.0 µg/ml
HepG2 [7] = assay: Cytotoxicity against human HepG2 cells at 12.5 ug/ml treated for 72 hrs by MTT assay; assay type: functional, cell-based; conditions: dose 12.5 µg/ml
Pyricularia grisea [8] = assay: Antifungal activity against Magnaporthe grisea CF-105765 at 50 ug/ml incubated for 24 hrs by agar based assay; assay type: functional, organism-based; conditions: dose 50.0 µg/ml
Pyricularia grisea [9] = assay: Antifungal activity against Magnaporthe grisea CF-105765 at 80 ug/ml incubated for 24 hrs by agar based assay; assay type: functional, organism-based; conditions: dose 80.0 µg/ml
Botrytis cinerea [10] = assay: Antifungal activity against Botrytis cinerea B05.10 at 80 ug/ml incubated for 24 hrs by agar based assay; assay type: functional, organism-based; conditions: dose 80.0 µg/ml
HepG2 [11] = assay: Cytotoxicity against human HepG2 cells at 20 ug/ml treated for 72 hrs by MTT assay; assay type: functional, cell-based; conditions: dose 20.0 µg/ml
Fusarium graminearum [12] = assay: Antifungal activity against Fusarium graminearum BRFM 1982 at 80 ug/ml incubated for 24 hrs by agar based assay; assay type: functional, organism-based; conditions: dose 80.0 µg/ml
Botrytis cinerea [13] = assay: Antifungal activity against Botrytis cinerea B05.10 at 100 ug/ml incubated for 24 hrs by agar based assay; assay type: functional, organism-based; conditions: dose 100.0 µg/ml
HepG2 [14] = assay: Cytotoxicity against human HepG2 cells at 25 ug/ml treated for 72 hrs by MTT assay; assay type: functional, cell-based; conditions: dose 25.0 µg/ml
Pyricularia grisea [15] = assay: Antifungal activity against Magnaporthe grisea CF-105765 at 100 ug/ml incubated for 24 hrs by agar based assay; assay type: functional, organism-based; conditions: dose 100.0 µg/ml
Fusarium graminearum [16] = assay: Antifungal activity against Fusarium graminearum BRFM 1982 at 100 ug/ml incubated for 24 hrs by agar based assay; assay type: functional, organism-based; conditions: dose 100.0 µg/ml

Measured: Activity

CN1C(=O)[C@H](Cc2cn([C@@]34C[C@H]5C(=O)N(C)[C@H](Cc6ccccc6)C(=O)N5[C@@H]3N(C=O)c3ccccc34)c3ccccc23)NC(=O)[C@H]1Cc1ccccc1
inactive: Pyricularia grisea [1] | HepG2 [2] | Fusarium graminearum [3] | Botrytis cinerea [4]

CN1C(=O)[C@H](Cc2c[nH]c3cc([C@@]45C[C@H]6C(=O)N(C)[C@H](Cc7ccccc7)C(=O)N6[C@@H]4Nc4ccccc45)ccc23)NC(=O)[C@H]1Cc1ccccc1
inactive: Botrytis cinerea [5] | Fusarium graminearum [6] | HepG2 [7] | Pyricularia grisea [8]

CC[C@H](C)[C@H]1NC(=O)[C@@H](NC(C)=O)[C@@H](C)OC(=O)[C@H](C(C)C)NC(=O)[C@H](Cc2ccc(OC)cc2)N(C)C(=O)[C@@H]2CCCN2C(=O)[C@@H]2CCCN2C1=O
inactive: Pyricularia grisea [1] | HepG2 [2] | Fusarium graminearum [3] | Botrytis cinerea [4]

CC[C@H](C)[C@H]1NC(=O)[C@@H](NC(C)=O)[C@@H](C)OC(=O)[C@H](C(C)C)NC(=O)[C@H](Cc2ccccc2)N(C)C(=O)[C@@H]2CCCN2C(=O)[C@@H]2CCCN2C1=O
inactive: Pyricularia grisea [9] | Botrytis cinerea [10] | HepG2 [11] | Fusarium graminearum [12]

COc1ccc(C[C@H]2C(=O)N[C@@H](C(C)C)C(=O)O[C@H](C)[C@H](NC(C)=O)C(=O)N[C@H](C(C)C)C(=O)N3CCC[C@H]3C(=O)N3CCC[C@H]3C(=O)N2C)cc1
inactive: Pyricularia grisea [1] | HepG2 [2] | Fusarium graminearum [3] | Botrytis cinerea [4]

CN1C(=O)[C@H](Cc2c[nH]c3cc([C@@]45C[C@H]6C(=O)N(C)[C@H](Cc7ccccc7)C(=O)N6[C@@H]4N(C=O)c4ccccc45)ccc23)NC(=O)[C@H]1Cc1ccccc1
inactive: Pyricularia grisea [1] | HepG2 [2] | Fusarium graminearum [3] | Botrytis cinerea [4]

CN1C(=O)[C@H](Cc2c[nH]c3ccc([C@]45C[C@H]6C(=O)N(C)[C@H](Cc7ccccc7)C(=O)N6[C@H]4Nc4ccccc45)cc23)NC(=O)[C@H]1Cc1ccccc1
inactive: Pyricularia grisea [1] | HepG2 [2] | Fusarium graminearum [3] | Botrytis cinerea [4]

CN1C(=O)[C@H](Cc2cn([C@@]34C[C@H]5C(=O)N(C)[C@H](Cc6ccccc6)C(=O)N5[C@@H]3Nc3ccccc34)c3ccccc23)NC(=O)[C@H]1Cc1ccccc1
inactive: Botrytis cinerea [13] | HepG2 [14] | Pyricularia grisea [15] | Fusarium graminearum [16]
